Assay results: patent publication US12077503B2, “Substituted cyclic amides and their use as herbicides” (FMC CORPORATION, priority 2015, dated 2024)

Legend:
Format in all cases: in vivo
[1] = system: sedge, umbrella (small-flower umbrella sedge, Cyperus difformis); assay: Test B flooded paddy test; conditions: Cyperus difformis, 250 g ai/ha, Flood; 0 to 100 scale where 0 is no effect and 100 is complete control; read-out: Sedge, Umbrella plant response rating
In short: (§1)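 2-leaf plants; pots flooded 3 cm over soil; cpd added to paddy water; depth held; greenhouse 13–15 d; visual rating vs controls, 0 = no effect, 100 = complete control.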

[2] = system: rice (Oryra sativa); assay: Test B flooded paddy test; conditions: Oryza sativa, 250 g ai/ha, Flood; 0 to 100 scale where 0 is no effect and 100 is complete control; read-out: Rice plant response rating
In short: as §1

[3] = system: ducksalad (Heteranthera limosa); assay: Test B flooded paddy test; conditions: Heteranthera limosa, 250 g ai/ha, Flood; 0 to 100 scale where 0 is no effect and 100 is complete control; read-out: Ducksalad plant response rating
In short: as §1

[4] = system: barnyardgrass (Echinochloa crus-galli); assay: Test B flooded paddy test; conditions: Echinochloa crus-galli, 250 g ai/ha, Flood; 0 to 100 scale where 0 is no effect and 100 is complete control; read-out: Barnyardgrass plant response rating
In short: as §1

[5] = system: corn (Zea mays); assay: Test A postemergence; conditions: Zea mays, post-emergence, 240 h
In short: (§2)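 Seeded soil received test chemicals as a preemergence directed spray, and seedlings at one to two leaves, 2–10 cm tall, received them postemergence, in a non-phytotoxic, surfactant-containing solvent mixture. Pots were held in a greenhouse for approximately 10 d, then rated for injury from 0, no effect, to 100, complete control.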

[6] = system: giant foxtail (Setaria faberii); assay: Test A postemergence; conditions: Setaria faberi, post-emergence, 240 h
In short: as §2

[7] = system: Kochia (Kochia scoparia); assay: Test A postemergence; conditions: Bassia scoparia, post-emergence, 240 h
In short: as §2

[8] = system: pigweed (Amaranthus retroflexus); assay: Test A postemergence; conditions: Amaranthus retroflexus, post-emergence, 240 h
In short: as §2

[9] = system: Galium (catchweed bedstraw, Galium aparine); assay: Test A postemergence; conditions: Galium, post-emergence, 240 h
In short: as §2

[10] = system: ryegrass, Italian (Italian ryegrass, Lolium multiflorum); assay: Test A postemergence; conditions: Lolium multiflorum, post-emergence, 240 h
In short: as §2

[11] = system: ragweed (common ragweed, Ambrosia elatior); assay: Test A postemergence; conditions: Ambrosia artemisiifolia, post-emergence, 240 h
In short: as §2

[12] = system: blackgrass (Alopecurus myosuroides); assay: Test A postemergence; conditions: Alopecurus myosuroides, post-emergence, 240 h
In short: as §2

[13] = system: wheat (Triticum aestivum); assay: Test A postemergence; conditions: Triticum aestivum, post-emergence, 240 h
In short: as §2

[14] = system: barnyardgrass (Echinochloa crus-galli); assay: Test A postemergence; conditions: Echinochloa crus-galli, post-emergence, 240 h
In short: as §2

[15] = system: giant foxtail (Setaria faberii); assay: Test A preemergence; conditions: Setaria faberi, pre-emergence, 240 h, 0 to 100 scale where 0 is no effect and 100 is complete control, read-out: Foxtail, Giant plant response rating
In short: as §2

[16] = system: Kochia (Kochia scoparia); assay: Test A preemergence; conditions: Bassia scoparia, pre-emergence, 240 h, 0 to 100 scale where 0 is no effect and 100 is complete control, read-out: Kochia plant response rating
In short: as §2

[17] = system: pigweed (Amaranthus retroflexus); assay: Test A preemergence; conditions: Amaranthus retroflexus, pre-emergence, 240 h, 0 to 100 scale where 0 is no effect and 100 is complete control, read-out: Pigweed plant response rating
[18] = system: ryegrass, Italian (Italian ryegrass, Lolium multiflorum); assay: Test A preemergence; conditions: Lolium multiflorum, pre-emergence, 240 h, 0 to 100 scale where 0 is no effect and 100 is complete control, read-out: Ryegrass, Italian plant response rating
In short: as §2

[19] = system: ragweed (common ragweed, Ambrosia elatior); assay: Test A preemergence; conditions: Ambrosia artemisiifolia, pre-emergence, 240 h, 0 to 100 scale where 0 is no effect and 100 is complete control, read-out: Ragweed plant response rating
In short: as §2

[20] = system: barnyardgrass (Echinochloa crus-galli); assay: Test A preemergence; conditions: Echinochloa crus-galli, pre-emergence, 240 h, 0 to 100 scale where 0 is no effect and 100 is complete control, read-out: Barnyardgrass plant response rating
In short: as §2

[21] = 125 g ai/ha, preemergence, approx. 10 d

CSc1ccccc1NC(=O)[C@H]1C(=O)N(C)C[C@@H]1c1ccc(F)c(Oc2ccccc2)c1 [Compound 1142]
pest or weed control at 250 g/ha [1]: 0%
pest or weed control at 250 g/ha [2]: 0%
pest or weed control at 250 g/ha [3]: 0%
pest or weed control at 250 g/ha [4]: 0%
plant injury at 125 g/ha ([5]; 125 g ai/ha, postemergence, visual injury on 0 to 100 scale (0 no effect, 100 complete control), approx. 10 d, read-out: Corn plant response rating): 0%
Corn plant response rating (crop injury, 0 = no effect, 100 = complete kill) at 31 g/ha ([5]; Postemergence, 31 g ai/ha, visual injury after approx. 10 d, 0 to 100 scale, 0 no effect, 100 complete control): 0%
pest or weed control at 125 g/ha ([6]; 125 g ai/ha, postemergence, visual injury on 0 to 100 scale (0 no effect, 100 complete control), approx. 10 d, read-out: Foxtail, Giant plant response rating): 60%
pest or weed control at 31 g/ha ([6]; Postemergence, 31 g ai/ha, visual injury after approx. 10 d, 0 to 100 scale, 0 no effect, 100 complete control, read-out: Plant response rating, Foxtail, Giant): 0%
pest or weed control at 125 g/ha ([7]; 125 g ai/ha, postemergence, visual injury on 0 to 100 scale (0 no effect, 100 complete control), approx. 10 d, read-out: Kochia plant response rating): 0%
pest or weed control at 31 g/ha ([7]; Postemergence, 31 g ai/ha, visual injury after approx. 10 d, 0 to 100 scale, 0 no effect, 100 complete control, read-out: Plant response rating, Kochia): 0%
pest or weed control at 125 g/ha ([8]; 125 g ai/ha, postemergence, visual injury vs untreated controls after approx. 10 d, 0 = no effect, 100 = complete control, read-out: Pigweed plant response rating (0 to 100 scale)): 30%
pest or weed control at 31 g/ha ([8]; Postemergence, 31 g ai/ha, visual injury after approx. 10 d, 0 to 100 scale, 0 no effect, 100 complete control, read-out: Plant response rating, Pigweed): 0%
pest or weed control at 125 g/ha ([9]; 125 g ai/ha, postemergence, visual injury on 0 to 100 scale (0 no effect, 100 complete control), approx. 10 d, read-out: Galium plant response rating): 30%
pest or weed control at 31 g/ha ([9]; Postemergence, 31 g ai/ha, visual injury after approx. 10 d, 0 to 100 scale, 0 no effect, 100 complete control, read-out: Plant response rating, Galium): 0%
pest or weed control at 125 g/ha ([10]; 125 g ai/ha, postemergence, visual injury vs untreated controls after approx. 10 d, 0 = no effect, 100 = complete control, read-out: Ryegrass, Italian plant response rating (0 to 100 scale)): 0%
pest or weed control at 31 g/ha ([10]; Postemergence, 31 g ai/ha, visual injury after approx. 10 d, 0 to 100 scale, 0 no effect, 100 complete control, read-out: Plant response rating, Ryegrass, Italian): 0%
pest or weed control at 125 g/ha ([11]; 125 g ai/ha, postemergence, visual injury vs untreated controls after approx. 10 d, 0 = no effect, 100 = complete control, read-out: Ragweed plant response rating (0 to 100 scale)): 0%
pest or weed control at 31 g/ha ([11]; Postemergence, 31 g ai/ha, visual injury after approx. 10 d, 0 to 100 scale, 0 no effect, 100 complete control, read-out: Plant response rating, Ragweed): 0%
pest or weed control at 125 g/ha ([12]; 125 g ai/ha, postemergence, visual injury on 0 to 100 scale (0 no effect, 100 complete control), approx. 10 d, read-out: Blackgrass plant response rating): 0%
pest or weed control at 31 g/ha ([12]; Postemergence, 31 g ai/ha, visual injury after approx. 10 d, 0 to 100 scale, 0 no effect, 100 complete control, read-out: Plant response rating, Blackgrass): 0%
plant injury at 125 g/ha ([13]; 125 g ai/ha, postemergence, visual injury vs untreated controls after approx. 10 d, 0 = no effect, 100 = complete control, read-out: Wheat plant response rating (0 to 100 scale)): 0%
plant injury at 31 g/ha ([13]; Postemergence, 31 g ai/ha, visual injury after approx. 10 d, 0 to 100 scale, 0 no effect, 100 complete control, read-out: Plant response rating, Wheat): 0%
pest or weed control at 125 g/ha ([14]; 125 g ai/ha, postemergence, visual injury on 0 to 100 scale (0 no effect, 100 complete control), approx. 10 d, read-out: Barnyardgrass plant response rating): 30%
pest or weed control at 31 g/ha ([14]; Postemergence, 31 g ai/ha, visual injury after approx. 10 d, 0 to 100 scale, 0 no effect, 100 complete control, read-out: Plant response rating, Barnyardgrass): 0%
pest or weed control at 31 g/ha ([15]; 31 g ai/ha, Preemergence): 30%
pest or weed control at 125 g/ha [15, 21]: 90%
pest or weed control at 31 g/ha ([16]; 31 g ai/ha, Preemergence): 0%
pest or weed control at 125 g/ha [16, 21]: 0%
pest or weed control at 31 g/ha ([17]; 31 g ai/ha, Preemergence): 0%
pest or weed control at 125 g/ha [17, 21]: 60%
pest or weed control at 31 g/ha ([18]; 31 g ai/ha, Preemergence): 0%
pest or weed control at 125 g/ha [18, 21]: 0%
pest or weed control at 31 g/ha ([19]; 31 g ai/ha, Preemergence): 0%
pest or weed control at 125 g/ha [19, 21]: 0%
pest or weed control at 31 g/ha ([20]; 31 g ai/ha, Preemergence): 0%
pest or weed control at 125 g/ha [20, 21]: 30%
